Laboratory results from patent publication US20120035247A1, “RNA Interference Mediated Inhibition of Signal Transducer and Activator of Transcription 6 (STAT6) Gene Expression Using Short Interfering Nucleic Acid (siNA)” (Merck Sharp & Dohme Corp., priority 2009, published 2012).
[invAb] = inverted abasic unit; m = 2'-O-methyl; r = 2'-OH (RNA); f = 2'-fluoro

How the values were obtained:
[1] = system: STAT6 mRNA; assay: STAT6 siNA screen in mouse NIH 3T3 cells, STAT6 mRNA by quantitative RT-PCR (Taqman); assay type: cell-based; details: mouse NIH3T3 cells, 10 nM siNA, 24 hrs, normalized to GAPDH and non-targeting control, n = 2
Protocol: NIH 3T3 (mouse; ATCC cat# CRL-1658): Cells were cultured at 37° C. in the presence of 5% CO2 and grown in Dulbecco's modified Eagle's medium (DMEM) with 4 mM L-glutamine adjusted to contain 1.5 g/L sodium bicarbonate and 4.5 g/L glucose and supplemented with fetal bovine serum at a final concentration of 10%, 100 μg/mL of streptomycin, and 100 U/mL penicillin.
(§1) Cells were plated in all wells of a tissue-culture treated, 96-well plate at a final count of 5000 cells/well in […], of the appropriate culture media. The cells were cultured for 24 hours after plating at 37° C. in the presence of 5% CO2.
(§2) After 24 hours, complexes containing siNA and RNAiMax were created as follows: A solution of RNAiMax diluted 33-fold in OPTI-MEM was prepared. In parallel, solutions of the siNAs for testing were prepared to a final concentration of 120 nM in OPTI-MEM. After incubation of RNAiMax/OPTI-MEM solution at room temperature for 5 min, an equal volume of the siNA solution and the RNAiMax solution were added together for each of the siNAs.
(§3) This solution was incubated at room temperature for 20 minutes. After incubation, 20 uL of the solution was added to each of the relevant wells. The final concentration of siNA in each well was 10 nM and the final volume of RNAiMax in each well was 0.3u1.
(§4) The time of incubation with the RNAiMax-siNA complexes was 24 hours and there was no change in media between transfection and harvesting, unless otherwise indicated.
(§5) RNA was extracted from a 96-well plate using the TaqMan® Gene Expression Cells-to-CT™ Kit (Cat#4399002) with a modified protocol. Briefly, a 60 uL (1 plate) or 110 uL (2 plates) of the Lysis Solution with DNase I was dispensed into each well of the Lysis Buffer Plate (twin.tec full skirt plate). The lysis buffer and stop plates were stored at 4° C. until the cells were washed.
(§6) The plate was spun at 1100 rpm for 5 minutes. The culture medium was aspirated and discarded from the wells of the culture plate. The lysis was performed automatically using a BioMek FX instrument and method. After the Biomek method was completed, the lysis plate was incubated for 2 min. at room temperature. The lysis plate can be stored for 2 hours at 4° C., or at −20° C. or −80° C. for two months.
(§7) Each well of the reverse transcription plate required 10 uL of 2× reverse transcriptase Buffer, luL of 20× reverse transcription enzyme and 2 uL of nuclease-free water. The reverse transcription master mix was prepared by mixing 2× reverse transcription buffer, 20× reverse transcription enzyme mix, and nuclease-free water. 13 uL of the reverse transcription master mix was dispensed into each well of the reverse transcription plate (semi-skirted). A separate reverse transcription plate was prepared for each cell plate. The plate was loaded onto a Biomek NX or Biomek FX Dual-96 and the Biomek method was run. The program is programmed to automatically added 7 uL of lysate from the cell lysis procedure described above into each well of the reverse transcription plate. The plate is sealed and spun on a centrifuge (1000 rpm for 30 seconds) to settle the contents to the bottom of the reverse transcription plate. The plate is placed in a thermocycler at 37° C. for 60 min, 95° C. for 5 min, and 4° C. until the plate is removed from the thermocycler. Upon removal, if not used immediately, the plate was frozen at −20° C.
(§8) A series of probes and primers were used to detect the various mRNA transcripts of the genes of 13-Actin (human cell line only), and of STATE and GAPDH in mouse and human cell lines. All Taqman probes and primers for the experiments here-in described were supplied as pre-validated sets by Applied Biosystems, Inc. (see Table 2).
The assays were performed on an ABI 7900 instrument, according to the manufacturer's instructions. A TaqMan Gene Expression Master Mix (provided in the Cells-to-CTT™, Applied Biosystems, Cat #4399002) was used. […]

[2] = system: STAT6 mRNA; assay: STAT6 siNA screen and dose response in human A549 cells, STAT6 mRNA by quantitative RT-PCR (Taqman); assay type: cell-based; details: human A549 cells, 10 nM siNA, 24 hrs, normalized to GAPDH and non-targeting control, mean ± S.D., n = 3
Protocol: A549 (human; ATCC cat# CCL-185): Cells were cultured at 37° C. in the presence of 5% CO2 and grown in Ham's F12K medium with 2 mM L-glutamine adjusted to contain 1.5 g/L sodium bicarbonate and supplemented with fetal bovine serum at a final concentration of 10%, 100 μg/mL of streptomycin, and 100 U/mL penicillin.
as §1, §2, §3, §4, §5, §6, §7, §8
The assays were performed on an ABI 7900 instrument, according to the manufacturer's instructions. A TaqMan Gene Expression Master Mix (provided in the Cells-to-CTT™, Applied Biosystems, Cat #4399002) was used. The PCR reactions were carried out at 50° C. for 2 min, 95° C. for 20 min followed by 40 cycles at 95° C. for 15 secs and 60° C. for 1 min. […]

Row | Substance | % KD STAT6 [1] [%] | % KD STAT6 [2] [%]
1 | 29998-DC: STAT6 siNA duplex; sense SEQ ID NO: 60, antisense SEQ ID NO: 61; target CUUCUUAUGACCUUGGAAU, site 2274 (sense CUUCUUAUGACCUUGGAAUTT; antisense AUUCCAAGGUCAUAAGAAGUU; sense: DNA at AGT, 2'-fluoro at CU, [invAb] at 5' end, 3' end, backbone not given here; antisense: sugars from the 5' end rrrffmmmmffmfmmmmmmmm, backbone not given here) [STAT6 siNA duplex; target CUUCUUAUGACCUUGGAAU, site 2274] | −3.8 ± 9.2 | 32.5 ± 3.5
2 | 30015-DC: STAT6 siNA duplex; sense SEQ ID NO: 94, antisense SEQ ID NO: 95; target CUCAGAUGUGACUAUGGUA, site 2544 (sense CUCAGAUGUGACUAUGGUATT; antisense UACCAUAGUCACAUCUGAGUU; sense: DNA at AGT, 2'-fluoro at CU, [invAb] at 5' end, 3' end, backbone not given here; antisense: sugars from the 5' end rrrfmfmmffmfmfffmmmmm, backbone not given here) [STAT6 siNA duplex; target CUCAGAUGUGACUAUGGUA, site 2544] | 81.6 ± 3.7 | 65.5 ± 7.6
3 | 30009-DC: STAT6 siNA duplex; sense SEQ ID NO: 82, antisense SEQ ID NO: 83; target GCUUUGCUCAGAUGUGACU, site 2538 (sense GCUUUGCUCAGAUGUGACUTT; antisense AGUCACAUCUGAGCAAAGCUU; sense: DNA at AGT, 2'-fluoro at CU, [invAb] at 5' end, 3' end, backbone not given here; antisense: sugars from the 5' end rrrfmfmfffmmmfmmmmfmm, backbone not given here) [STAT6 siNA duplex; target GCUUUGCUCAGAUGUGACU, site 2538] | 72.7 ± 5.4 | 63.5 ± 4.6
4 | 30020-DC: STAT6 siNA duplex; sense SEQ ID NO: 104, antisense SEQ ID NO: 105; target CUAGCCUUCUCCUCAAUGA, site 1928 (sense CUAGCCUUCUCCUCAAUGATT; antisense UCAUUGAGGAGAAGGCUAGUU; sense: DNA at AGT, 2'-fluoro at CU, [invAb] at 5' end, 3' end, backbone not given here; antisense: sugars from the 5' end r3 f2 m10 f2 m4, backbone not given here) [STAT6 siNA duplex; target CUAGCCUUCUCCUCAAUGA, site 1928] | 64.2 ± 7.9 | 58.8 ± 13.6
5 | 30022-DC: STAT6 siNA duplex; sense SEQ ID NO: 108, antisense SEQ ID NO: 109; target CCAAGACCCGGGCAUCGCU, site 1037 (sense CCAAGACCCGGGCAUCGCUTT; antisense AGCGAUGCCCGGGUCUUGGUU; sense: DNA at AGT, 2'-fluoro at CU, [invAb] at 5' end, 3' end, backbone not given here; antisense: chemistry not given here; in the key) [STAT6 siNA duplex; target …UCGCU, site 1037] | 51.5 ± 0 | 56.1 ± 8.3
6 | 30004-DC: STAT6 siNA duplex; sense SEQ ID NO: 72, antisense SEQ ID NO: 73; target GCCUUCUUAUGACCUUGGA, site 2272 (sense GCCUUCUUAUGACCUUGGATT; antisense UCCAAGGUCAUAAGAAGGCUU; sense: DNA at AGT, 2'-fluoro at CU, [invAb] at 5' end, 3' end, backbone not given here; antisense: sugars from the 5' end rrrmmmmffmfmmmmmmmfmm, backbone not given here) [STAT6 siNA duplex; target GCCUUCUUAUGACCUUGGA, site 2272] | −12.8 ± 9.1 | 3.1 ± 19.6
7 | 29994-DC: STAT6 siNA duplex; sense SEQ ID NO: 52, antisense SEQ ID NO: 53; target CUGAUCAUUGGCUUCAUCA, site 1880 (sense CUGAUCAUUGGCUUCAUCATT; antisense UGAUGAAGCCAAUGAUCAGUU; sense: DNA at AGT, 2'-fluoro at CU, [invAb] at 5' end, 3' end, backbone not given here; antisense: sugars from the 5' end rrrfmmmmffmmfmmffmmmm, backbone not given here) [STAT6 siNA duplex; target CUGAUCAUUGGCUUCAUCA, site 1880] | −13.9 ± 4.1 | 1.9 ± 15.7
8 | 29996-DC: STAT6 siNA duplex; sense SEQ ID NO: 56, antisense SEQ ID NO: 57; target GCACCAUCUUGCAACACAU, site 495 (sense GCACCAUCUUGCAACACAUTT; antisense AUGUGUUGCAAGAUGGUGCUU; sense: DNA at AGT, 2'-fluoro at CU, [invAb] at 5' end, 3' end, backbone not given here; antisense: sugars from the 5' end rrrfmffmfmmmmfmmfmfmm, backbone not given here) [STAT6 siNA duplex; target GCACCAUCUUGCAACACAU, site 495] | −10.9 ± 0.1 | 49.5 ± 5.5
9 | 30021-DC: STAT6 siNA duplex; sense SEQ ID NO: 106, antisense SEQ ID NO: 107; target GUCAAUGGUCCUGGUCCAA, site 793 (sense GUCAAUGGUCCUGGUCCAATT; antisense UUGGACCAGGACCAUUGACUU; sense: DNA at AGT, 2'-fluoro at CU, [invAb] at 5' end, 3' end, backbone not given here; antisense: sugars from the 5' end rrrmmffmmmmffmffmmfmm, backbone not given here) [STAT6 siNA duplex; target GUCAAUGGUCCUGGUCCAA, site 793] | −7 ± 7.2 | 17.2 ± 7.5
10 | 30018-DC: STAT6 siNA duplex; sense SEQ ID NO: 100, antisense SEQ ID NO: 101; target CAGAAGAUCUUCAACGACA, site 1720 (sense CAGAAGAUCUUCAACGACATT; antisense UGUCGUUGAAGAUCUUCUGUU; sense: DNA at AGT, 2'-fluoro at CU, [invAb] at 5' end, 3' end, backbone not given here; antisense: sugars from the 5' end rrrfmffmmmmmffffffmmm, backbone not given here) [STAT6 siNA duplex; target CAGAAGAUCUUCAACGACA, site 1720] | 64.8 ± 0.7 | 66.8 ± 3.2
